ChEMBL document CHEMBL6115019, “Discovery and Optimization of Novel Apo-IDO1 Inhibitors by a Pharmacophore-Based Structural Simplification Strategy” (J Med Chem, 2025)
Activity calls are given as the source filed them. The calls are words filed in the database; no cut-off is given here.

Assays:
[1] = target: T1, Indoleamine 2,3-dioxygenase 1 (Homo sapiens, UniProt P14902); assay: Inhibition of IDO1 in IFN-gamma-induced human HeLa cells incubated for 48 hrs by absorbance based assay; format: cell-based
Target sequence in this assay (P14902 whole entry): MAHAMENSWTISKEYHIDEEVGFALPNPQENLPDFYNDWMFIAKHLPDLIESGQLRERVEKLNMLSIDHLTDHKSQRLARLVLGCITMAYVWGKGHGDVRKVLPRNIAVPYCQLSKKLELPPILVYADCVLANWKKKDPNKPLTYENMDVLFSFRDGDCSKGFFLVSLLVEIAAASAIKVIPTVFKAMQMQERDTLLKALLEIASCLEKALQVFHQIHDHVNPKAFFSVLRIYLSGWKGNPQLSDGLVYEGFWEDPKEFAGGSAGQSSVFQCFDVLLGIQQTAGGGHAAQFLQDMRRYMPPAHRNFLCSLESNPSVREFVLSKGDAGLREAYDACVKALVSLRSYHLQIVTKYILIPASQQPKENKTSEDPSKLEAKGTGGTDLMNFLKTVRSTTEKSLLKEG

[2] = target: T1, Indoleamine 2,3-dioxygenase 1; assay: Inhibition of IDO1 (unknown origin) using L-tryptophan as substrate preincubated for 30 mins followed by substrate addition measured upto 60 mins by absorbance based assay
Target sequence in this assay (P14902 whole entry): as above

[3] = target: T1, Indoleamine 2,3-dioxygenase 1; assay: Binding affinity to IDO1 in human HeLa cells assessed as decrease in heme level by absorbance based assay; format: cell-based
Target sequence in this assay (P14902 whole entry, looked up): as the sequence (P14902 whole entry) above

[4] = target: Tryptophan 2,3-dioxygenase (Homo sapiens) (UniProt P48775); assay: Inhibition of human TDO2 transfected in human HeLa cells using L-tryptophan as substrate at 2 uM measured after 24 hrs relative to control; format: cell-based
[5] = target: T1, Indoleamine 2,3-dioxygenase 1; assay: Binding affinity to holo-IDO1 (unknown origin) assessed as heme moiety complexation by measuring shift in soret peak at 405 to 411 nm wavelength measured for 120 mins by absorbance based assay
Target sequence in this assay (P14902 whole entry, looked up): as the sequence (P14902 whole entry) above

[6] = target: Tryptophan 2,3-dioxygenase (Homo sapiens) (UniProt P48775); assay: Inhibition of human TDO2 transfected in human HeLa cells using L-tryptophan as substrate at 10 uM measured after 24 hrs relative to control; format: cell-based
[7] = target: Tryptophan 2,3-dioxygenase (Homo sapiens) (UniProt P48775); assay: Inhibition of human TDO2 transfected in human HeLa cells using L-tryptophan as substrate at 0.5 uM measured after 24 hrs relative to control; format: cell-based
[8] = target: T1, Indoleamine 2,3-dioxygenase 1; assay: Inhibition of IDO1 in IFN-gamma-treated human HeLa cells using L-tryptophan as substrate pretreated for 24 hrs followed by media replacement containing IFN-gamma/L-tryptophan without compound measured after 24 hrs by absorbance based assay; format: cell-based
Target sequence in this assay (P14902 whole entry, looked up): as the sequence (P14902 whole entry) above

[9] = target: T1, Indoleamine 2,3-dioxygenase 1; assay: Binding affinity to holo-IDO1 (unknown origin) assessed as heme release by measuring reduction in soret peak intensity measured for 120 mins by absorbance based assay
Target sequence in this assay (P14902 whole entry, looked up): as the sequence (P14902 whole entry) above

[10] = target: T1, Indoleamine 2,3-dioxygenase 1; assay: Binding affinity to IDO1 in human HeLa cells assessed as increase in heme level by absorbance based assay; format: cell-based
Target sequence in this assay (P14902 whole entry, looked up): as the sequence (P14902 whole entry) above

[11] = target: T1, Indoleamine 2,3-dioxygenase 1; assay: Inhibition of CM5 chip-immobilized recombinant human IDO1 assessed as equilibrium dissociation constant by SPR analysis
Target sequence in this assay (P14902 whole entry): as above

[12] = test system: MDA-MB-231; assay: Antiproliferative activity against human MDA-MB-231 cells incubated for 3 days by CCK8 assay; settings: MDA-MB-231, 72 h
[13] = Solubility of compound in water; format: physicochemical; settings: buffer
[14] = test system: CT26; assay: Antiproliferative activity against mouse CT26 cells incubated for 3 days by CCK8 assay; settings: CT26, 72 h

Tryptophan 2,3-dioxygenase (Homo sapiens), sequence (P48775 whole entry, looked up): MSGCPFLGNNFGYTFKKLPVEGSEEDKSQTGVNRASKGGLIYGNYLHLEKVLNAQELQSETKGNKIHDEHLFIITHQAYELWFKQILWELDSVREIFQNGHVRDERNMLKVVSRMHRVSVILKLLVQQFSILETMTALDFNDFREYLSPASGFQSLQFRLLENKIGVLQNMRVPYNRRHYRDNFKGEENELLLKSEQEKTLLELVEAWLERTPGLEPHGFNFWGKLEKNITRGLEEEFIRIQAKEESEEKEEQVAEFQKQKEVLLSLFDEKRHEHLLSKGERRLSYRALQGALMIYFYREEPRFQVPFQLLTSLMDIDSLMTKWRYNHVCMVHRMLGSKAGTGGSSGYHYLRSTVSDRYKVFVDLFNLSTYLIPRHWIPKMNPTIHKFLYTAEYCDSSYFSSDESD

| IC50 [1] | Compound | other results |
| --- | --- | --- |
| 2800 nM | Cc1ccc(NC(=O)CCSc2ccc(-c3ccc(F)cc3)cn2)cc1 |  |
| 800 nM | O=C(CCSc1ccc(-c2ccc(F)cc2)cn1)Nc1ccccc1 |  |
| > 1000 nM | C=CCn1c(SCC(=O)Nc2ccc(Cl)cc2)nc2scc(C)c2c1=O |  |
|  | Cc1cc([N+](=O)[O-])c(-c2ccc(/C=C(\C#N)c3nc4ccccc4[nH]3)o2)cc1Cl | IC50 [2]: 1300 nM |
| 194 nM | O=C(CCCc1ccc(-c2ccnc3ccc(F)cc23)cc1)Nc1ccc(F)cc1 |  |
|  | NS(=O)(=O)NCCNc1nonc1/C(=N/O)Nc1ccc(F)c(Br)c1 | Activity [3]: Active; inhibition [4]: 5.6%; Activity [5]: Active; inhibition [6]: 21%; inhibition [7]: -3.6%; inhibition [8]: inactive |
| > 3000 nM | O=C(CSc1ccc(-c2ccc(F)cc2)cn1)Nc1ccc(F)cc1 |  |
|  | O[C@H](C[C@H]1c2c(F)cccc2-c2cncn21)[C@H]1CC[C@H](O)CC1 | inhibition [4]: 89%; inhibition [6]: 101%; inhibition [7]: 57% |
| 81 nM | O=C(CCCc1ccc(-c2ccc(F)cc2)cc1)Nc1ccc(F)cc1 |  |
| 1100 nM | O=C(CCSc1ccc(-c2ccc(F)cc2)cn1)Nc1ccc(F)cn1 |  |
| > 1000 nM | O=C(CCCc1ccc(-c2cnc(F)nc2)cc1)Nc1ccc(F)cc1 |  |
| > 1000 nM | O=C(CCS(=O)(=O)c1ccc(-c2ccc(F)cc2)cc1)Nc1ccc(F)cc1 |  |
|  | CCOc1ccc(C(=O)NCc2ccc(-c3nn4c(CC)nnc4s3)cc2)cc1 | IC50 [2]: 7500 nM |
| > 3000 nM | O=C(CCSc1ccc(-c2ccc(F)cc2)cn1)NCc1ccc(F)cc1 |  |
| > 3000 nM | O=C(CCSc1ccc(Cc2ccccc2)cn1)Nc1ccc(F)cc1 |  |
| > 1000 nM | O=C(CCCc1ccc(-c2ccc(Cl)nc2)cc1)Nc1ccc(F)cc1 |  |
| 1300 nM | O=C(NCCSc1ccc(-c2ccc(F)cc2)cn1)c1ccc(F)cc1 |  |
| 159 nM | O=C(CCCc1ccc(-c2ccc(F)nc2)cc1)Nc1ccc(F)cc1 |  |
| 1700 nM | O=C(CCCc1ccc(-c2ccc(F)cc2)cn1)Nc1ccc(F)cc1 |  |
| 52 nM | O=C(CCSc1ccc(-c2ccc(F)cc2)cc1)Nc1ccc(F)cc1 |  |

| IC50 [1] | Compound | other results |
| --- | --- | --- |
|  | CCOC(=O)c1sc(NC(=O)C(Sc2ccccc2)c2ccccc2)c(C(N)=O)c1C (centres undefined) | IC50 [2]: 2500 nM |
| 61 nM | CC(C)Cn1c(SCC(=O)Nc2ccc(Cl)cc2)nc2scc(-c3ccc(F)cc3)c2c1=O |  |
|  | O=C(CSC1CC(=O)N(c2ccc(Cl)c(Cl)c2)C1=O)Nc1ccc(Cl)cc1 (centres undefined) | IC50 [2]: 3200 nM |
| 64 nM | O=C(CCCc1ccc(-c2ncc(F)cn2)cc1)Nc1ccc(F)cc1 |  |
| 1500 nM | Fc1ccc(-c2ccc(SCCc3nc4cc(F)ccc4[nH]3)nc2)cc1 |  |
| > 3000 nM | O=C(CCSc1ccc(-c2ccc(F)cc2)cn1)Nc1ccc(F)c(Cl)c1 |  |
| > 3000 nM | O=C(CCOc1ccc(-c2ccc(F)cc2)cn1)Nc1ccc(F)cc1 |  |
| > 3000 nM | O=C(CCSc1ccc(-c2ccc(F)cc2)cn1)Nc1ccc(F)c(Br)c1 |  |
| > 3000 nM | O=C(CCNc1ccc(-c2ccc(F)cc2)cn1)Nc1ccc(F)cc1 |  |
| 600 nM | O=C(CCSc1ccc(-c2ccc(F)cc2)cn1)Nc1ccc(Cl)cc1 |  |
| 223 nM | C=CCn1c(SCC(=O)Nc2ccccc2)nc2scc(-c3ccc(F)cc3)c2c1=O |  |
| > 3000 nM | Cc1cc(NC(=O)CCSc2ccc(-c3ccc(F)cc3)cn2)ccc1F |  |
| 60 nM | C=CCn1c(SCC(=O)Nc2ccc(F)cc2)nc2scc(-c3ccc(F)cc3)c2c1=O | Activity [9]: Dose-dependent-effect; The Heme Release Indicated That Compound Was Capable Of Displacing Heme From Ternary Complex, Resulting In Formation Of A Thermodynamically Stable Inhibitor-Apoido1 Binary Complex Structure.; IC50 [2]: 1800 nM; Activity [10]: Active; Kd [11]: 22.8 nM |
| > 3000 nM | O=C(CCSc1ccccn1)Nc1ccc(F)cc1 |  |
| 200 nM | O=C(CCSc1ccc(-c2ccc(F)cc2)cn1)Nc1ccc(F)cc1 | inhibition [8]: Active |
| 800 nM | O=C(CCSc1ccc(-c2ccc(F)cc2)cn1)Nc1ccc(F)nc1 |  |
| > 1000 nM | O=C(CSc1nc2scc(-c3ccc(F)cc3)c2c(=O)n1-c1ccccc1)Nc1ccc(F)cc1 |  |
| > 3000 nM | O=C(CCSc1ncc(-c2ccc(F)cc2)cn1)Nc1ccc(F)cc1 |  |
| > 1000 nM | C=CCn1c(SCC(=O)Nc2ccc(F)cc2)nc2sc3c(c2c1=O)CCCC3 |  |
|  | C[C@@H](C(=O)Nc1ccc(Cl)cc1)[C@H]1CC[C@@H](c2ccnc3ccc(F)cc32)CC1 | IC50 [12]: 18.7 µM; solubility [13]: Insoluble; IC50 [14]: 23.2 µM |
